Measured values from patent US20110046147A1, “17BETA-HYDROXYSTEROID DEHYDROGENASE TYPE 1 INHIBITORS FOR THE TREATMENT OF HORMONE-RELATED DISEASES” (UNIVERSITAT DES SAARLANDES, priority 2007, published 2011).

Columns and labels:
[1] = molecular target: T1, 17β-HSD1 (Homo sapiens, UniProt P14061); assay: Inhibition of 17β-HSD1 (estrone to estradiol, radio-HPLC); assay type: biochemical; conditions: for IC50: human placenta enzyme, 500 nM estrone, NADH 500 μM; for Selectivity IC50 (17β-HSD2)/IC50 (17β-HSD1): ratio of IC50 values
T1 construct: In both cases, human placenta served as the enzyme source; from tissue; host or cells: human placenta
T1 sequence (P14061 1-328): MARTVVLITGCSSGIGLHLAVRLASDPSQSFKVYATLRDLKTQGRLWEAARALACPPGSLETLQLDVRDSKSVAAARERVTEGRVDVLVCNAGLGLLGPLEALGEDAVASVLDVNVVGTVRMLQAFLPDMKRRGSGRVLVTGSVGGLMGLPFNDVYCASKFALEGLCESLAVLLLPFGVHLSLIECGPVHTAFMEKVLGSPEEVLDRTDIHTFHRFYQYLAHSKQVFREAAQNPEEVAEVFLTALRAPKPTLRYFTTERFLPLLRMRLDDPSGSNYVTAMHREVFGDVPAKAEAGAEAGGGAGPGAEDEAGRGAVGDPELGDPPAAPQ
Experimental: In the 17β-HSD1 test, NADH is employed as a cosubstrate at a final concentration of 500 μM in order to avoid the product inhibition occurring with NADPH. The enzyme preparation is diluted with test buffer to such an extent that the control conversion is 10 to maximally 20% (about 1:650). As the substrate, estrone in a final concentration of 500 nM is used, of which 3 nM is tritiated. 2,4,6,7-[^3H]estrone is purchased from Perkin-Elmer, Boston. The inhibitor is added as a solution in DMSO (control: pure DMSO without inhibitor; the final concentration of DMSO in the assay is 1% in all cases).
(§1) After the reaction, the substrate and product are extracted by partitioning with ether, separated by chromatography (HPLC) and quantified by means of radiodetection.

[2] = molecular target: T2, 17β-HSD2 (Homo sapiens, UniProt P37059); assay: Inhibition of 17β-HSD2 (estradiol to estrone, radio-HPLC); assay type: biochemical; conditions: human placenta microsome fraction, 500 nM estradiol, NAD+ 1500 μM
T2 construct: from tissue; host or cells: human placenta, microsome fraction
T2 sequence (P37059 1-387): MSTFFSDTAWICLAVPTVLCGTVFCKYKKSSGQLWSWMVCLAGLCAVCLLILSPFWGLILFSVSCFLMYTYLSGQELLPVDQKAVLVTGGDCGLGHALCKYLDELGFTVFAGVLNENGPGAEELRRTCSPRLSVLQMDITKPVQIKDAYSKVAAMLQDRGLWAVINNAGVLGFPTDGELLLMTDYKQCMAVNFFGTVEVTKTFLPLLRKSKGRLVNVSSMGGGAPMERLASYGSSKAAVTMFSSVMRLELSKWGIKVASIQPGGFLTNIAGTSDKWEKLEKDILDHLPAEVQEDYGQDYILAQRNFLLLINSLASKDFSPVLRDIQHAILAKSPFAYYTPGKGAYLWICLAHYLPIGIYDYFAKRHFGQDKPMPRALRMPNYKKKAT
Experimental: Determination of the inhibitory activity of the potential inhibitors: Inhibition of 17β-HSD1 and 17β-HSD2: In both cases, human placenta served as the enzyme source (Lin, S.-X. et al., J. Biol. Chem., 267: 16182-16187 (1992)).
In the 17β-HSD2 test, the natural cosubstrate NAD^+ is employed at a final concentration of 1500 μM. The microsome fraction is diluted in test buffer, so that a control conversion of 20 to 30% results (about 1:350). As the substrate, estradiol in a final concentration of 500 nM is used, of which 3 nM is tritiated. 2,4,6,7-[^3H]estradiol is also purchased from Perkin-Elmer, Boston. The inhibitor is added as a solution in DMSO (control: pure DMSO without inhibitor; the final concentration of DMSO in the assay is […]). After the addition of the substrate, incubation is performed at 37° C. for 20 minutes. The reaction is quenched by the addition of HgCl2 (final concentration of HgCl2: 0.166 mM).
as §1

[3] = In vivo pharmacokinetics (rat), peroral cassette dosing; set-up: species or system Wistar rats; conditions: 10 mg/kg; for AUC(0-inf): extrapolated to ∞
Experimental: In vivo pharmacokinetics (rat): The compounds 29, 45, 47 and 59 and a reference compound were administered to adult male Wistar rats (n=4) perorally in a cassette dosing method (vehicle: Labrasol/water 1/1). The plasma profiles were established by means of LC-MS/MS.
• Cmax obs highest measured concentration • Cz last analytically quantifiable concentration • tmax obs time to reach the highest measured concentration • tz time to withdrawal of the last sample with analytically quantifiable concentration • t1/2z half life (determined from the slope of the declining portion of the concentration vs. time curve • AUC0-tz area below the concentration vs. time curve up to time tZ • AUC0-∞ area below the concentration vs. time curve, extrapolated to ∞

Row | SMILES | IC50 [1] [nM] | Selectivity IC50 (17β-HSD2)/IC50 (17β-HSD1) [1] | IC50 [2] [nM] | further results
1 | Oc1cccc(-c2ccc(-c3ccc(O)c(O)c3)s2)c1 [Compound 46, 4-[5-(3-Hydroxyphenyl)-2-thienyl]benzene-1,2-diol] | 800 | 2.1 | 1640 | –
2 | Oc1cccc(-c2ccc(-c3cccc(F)c3)s2)c1 [Compound 50, 3-[5-(3-Fluorophenyl)-2-thienyl]phenol] | 530 | – | – | –
3 | Oc1ccc(-c2cnc(-c3ccc(O)cc3)s2)cc1 [Compound 21, 4,4′-(1,3-Thiazole-2,5-diyl)diphenol] | – | – | – | inhibition of 17β-HSD1 at a concentration of 1 μM (in words) [1]: do not show any inhibition
4 | CS(=O)(=O)Nc1cccc(-c2ccc(-c3cccc(O)c3)s2)c1 [Compound 51, N-{3-[5-(3-Hydroxyphenyl)-2-thienyl]phenyl}methanesulfonamide] | 520 | – | – | –
5 | Cc1cc(-c2csc(-c3cccc(O)c3)c2)ccc1O [Compound 55, 4-[5-(3-Hydroxyphenyl)-3-thienyl]-2-methylphenol] | 100 | 8.7 | 870 | –
6 | Oc1cccc(-c2csc(-c3cccc(O)c3)c2)c1 [Compound 34, 3,3′-Thiene-2,4-diyldiphenol] | 170 | 3.3 | 560 | –
7 | Cc1cc(-c2ccc(-c3cccc(O)c3)s2)ccc1O [Compound 45, 4-[5-(3-Hydroxyphenyl)-2-thienyl]-2-methylphenol] | 40 | 49 | 1970 | t1/2z (half life) [3]: 3.8 h; tmax obs (time to reach the highest measured concentration) [3]: 4.0 h; tz (time of last sample with quantifiable concentration) [3]: 24.0 h; Cz (last analytically quantifiable concentration) ([3]; plasma): 43.4 ng/mL; AUC(0-t) ([3]; male, Wistar, plasma, po): 12000 ng·h/mL; AUC(0-inf) ([3]; male, Wistar, plasma, po): 12300 ng·h/mL
8 | Oc1cccc(-c2ccc(-c3cccc(O)c3)nc2)c1 [Compound 57, 3,3′-Pyridine-2,5-diyldiphenol] | 100 | 34 | 3400 | –
9 | Oc1cccc(-c2ccc(-c3cc(F)c(O)c(F)c3)s2)c1 [Compound 48, 2,6-Difluoro-4-[5-(3-hydroxyphenyl)-2-thienyl]phenol] | 50 | 4.6 | 230 | –
10 | Oc1ccc(-c2ccc(-c3ccc(O)cc3)s2)cc1 [Compound 30, 4,4′-Thiene-2,5-diyldiphenol] | – | – | – | inhibition of 17β-HSD1 at a concentration of 1 μM (in words) [1]: do not show any inhibition
11 | Oc1ccc(-c2ccsc2-c2ccc(O)cc2)cc1 [Compound 27, 4,4′-Thiene-2,3-diyldiphenol] | – | – | – | inhibition of 17β-HSD1 at a concentration of 1 μM (in words) [1]: do not show any inhibition
12 | Oc1cccc(-c2nnc(-c3cccc(O)c3)o2)c1 [Compound 35, 3,3′-(1,3,4-Oxadiazole-2,5-diyl)diphenol] | – | – | – | inhibition of 17β-HSD1 at a concentration of 1 μM (in words) [1]: do not show any inhibition
13 | Oc1ccc(-c2ccc(-c3cccc(O)c3)cc2)cc1 [Compound 44, [1,1′;4′,1″]Terphenyl-4,3″-diol] | 240 | 19 | 4500 | –
14 | Oc1cccc(-c2ccc(-c3cccc(O)c3)s2)c1 [Compound 31, 3,3′-Thiene-2,5-diyldiphenol] | 110 | 6.8 | 750 | –
15 | Oc1cccc(-c2ccc(-c3ccc(O)c(F)c3)s2)c1 [Compound 47, 2-Fluoro-4-[5-(3-hydroxyphenyl)-2-thienyl]phenol] | 10 | 94 | 940 | t1/2z (half life) [3]: 2.7 h; tmax obs (time to reach the highest measured concentration) [3]: 8.0 h; tz (time of last sample with quantifiable concentration) [3]: 24.0 h; Cz (last analytically quantifiable concentration) ([3]; plasma): 25 ng/mL; AUC(0-t) ([3]; male, Wistar, plasma, po): 19300 ng·h/mL; AUC(0-inf) ([3]; male, Wistar, plasma, po): 19400 ng·h/mL
16 | Oc1ccc(-c2nsc(-c3cccc(O)c3)n2)cc1 [Compound 40, 3-[3-(4-Hydroxyphenyl)-1,2,4-thiadiazole-5-yl]phenol] | 360 | 6.1 | 2200 | –
17 | Oc1ccc(-c2csc(-c3cccc(O)c3)c2)cc1 [Compound 33, 3-[4-(4-Hydroxyphenyl)-2-thienyl]phenol] | 70 | 18 | 1270 | –
18 | Oc1cccc(-c2ccc(-c3ccc(O)c(C(F)(F)F)c3)s2)c1 [Compound 49, 4-[5-(3-Hydroxyphenyl)-2-thienyl]-2-(trifluoromethyl)phenol] | 40 | – | – | –
19 | Oc1ccc(-c2nsc(-c3ccc(O)cc3)n2)cc1 [Compound 39, 4,4′-(1,2,4-Thiadiazole-3,5-diyl)diphenol] | – | – | – | inhibition of 17β-HSD1 at a concentration of 1 μM (in words) [1]: do not show any inhibition
20 | Cc1cc(-c2cnc(-c3cccc(O)c3)s2)ccc1O [Compound 56, 4-[2-(3-Hydroxyphenyl)-1,3-thiazole-5-yl]-2-methylphenol] | 100 | 20 | 2020 | –
21 | Oc1cccc(-c2ccc(-c3ccccc3)s2)c1 [Compound 52, 3-(5-Phenyl-2-thienyl)phenol] | 340 | 6.9 | 2340 | –
22 | Oc1cccc(-c2nnc(-c3cccc(O)c3)s2)c1 [Compound 36, 3,3′-(1,3,4-Thiadiazole-2,5-diyl)diphenol] | 510 | – | – | –
23 | Oc1cccc(-c2ccc(-c3ccc(F)cc3)s2)c1 [Compound 54, 3-[5-(4-Fluorophenyl)-2-thienyl]phenol] | 720 | – | – | –
24 | Oc1cccc(-c2nnc(-c3cccc(O)c3)nn2)c1 [Compound 59, 3,3′-(1,2,4,5-Tetrazine-3,6-diyl)diphenol] | 200 | 26 | 5100 | tz (time of last sample with quantifiable concentration) [3]: 10.0 h; Cz (last analytically quantifiable concentration) ([3]; plasma): 54 ng/mL; AUC(0-t) ([3]; male, Wistar, plasma, po): 1200 ng·h/mL; AUC(0-inf) ([3]; male, Wistar, plasma, po): 1200 ng·h/mL; half-life ([3]; male, Wistar, plasma, po, read-out: t1/2z (half life) (converted)): 1.2 h; Tmax ([3]; male, Wistar, plasma, po, read-out: tmax obs (time to reach the highest measured concentration)): 3 h
25 | COc1ccc(-c2nsc(-c3cccc(O)c3)n2)cc1 [Compound 38, 3-[3-(4-Methoxyphenyl)-1,2,4-thiadiazole-5-yl]phenol] | 820 | – | – | –
26 | Oc1cccc(-c2cnc(-c3cccc(O)c3)cn2)c1 [Compound 58, 3,3′-Pyrazine-2,5-diyldiphenol] | 1000 | 5.5 | 5500 | –
27 | Oc1ccc(-c2cccc(-c3cccc(O)c3)c2)cc1 [Compound 43, [1,1′;3′,1″]Terphenyl-4,3″-diol] | 1410 | 2.2 | 3100 | –
